Reference: patent US20050267182A1, “Urea derivatives as FLT-3 modulators” (Ambit Biosciences Corporation, priority 2003, published 2005)

Key:
MV4,11 cells = assay: FLT3 assay using MV4,11 cells (cellular proliferation, MTS); assay type: cell-based, human; conditions: cell assay code CS0001
Method: The ability of FLT3 kinase inhibitors to inhibit cellular proliferation was also examined. MV4:11 was a cell line derived from a patient with acute myelogenous leukemia.
FLT3 Assay Using MV4,11 Cells
MV4,11 cells were grown in an incubator @ 37° C. in 5% CO2 in Medium 2 (RPMI, 10% FBS, 4 mM glutamine, Penn/Strep). The cells were counted daily and the cell density was kept between 1e5 and 8e5 cells/ml.
Day One: Enough cells were harvested for experiments to be conducted in 50 ml conical tubes. The harvested cells were spun at 500 g for 5 min at 4° C., the supernatant was then aspirated and the cells were resuspended in the starting volume of 1×PBS. The cells were again spun at 500 g for 5 min at 4° C. and the supernatant again aspirated. The cells were then resuspended in medium 3 (DMEM w/ glut, 10% FBS, Penn/Strep) to a density of 4e5 cells/ml and incubated (37° C. in 5% CO2 O/N.
Day Two: The cells were counted and enough medium 3 was added to decrease density to 2e5 cells/ml. 50 ul (10,000 cells) was aliquoted into each well of a 96 well optical plate using multichannel pipetman. The compound plate was then set up by aliquoting 3 μl of negative control (DMSO) into column 1 of a 96 well 300 ul polypropylene plate, aliquoting 3 μt of positive control (10 mM AB20121) into column 12 of plate, and aliquoting 3 μl of appropriate compounds from serial dilutions into columns 2-11. To each well, 150 μl of Medium 3 was added and 50 μl of compound/medium mixture from compound plate into rows of optical plate in duplicate. The cells were then incubated @ 37° C. in 5% CO2 for 3 days.
Day Five: MTS was thawed in a H2O bath. 20 μl of MTS was added to each well of optical plate and the cells were incubated (37° C. in 5% CO2 for 2 hours. The plate was then placed on a plate shaker for 30 seconds on high speed.

FLT3 = target: T1, FLT3 (Homo sapiens, UniProt P36888); assay: Binding constant (Kd) measurement, phage-displayed kinase competition binding assay; conditions: for Binding Assay: FLT3(JMminus): FLT3(JMminus) construct; for Binding Assay: FLT3(DKIN): FLT3(DKIN) construct
T1 construct: FLT3(DKIN); made in house
T1 sequence (P36888 610-943 limits assumed): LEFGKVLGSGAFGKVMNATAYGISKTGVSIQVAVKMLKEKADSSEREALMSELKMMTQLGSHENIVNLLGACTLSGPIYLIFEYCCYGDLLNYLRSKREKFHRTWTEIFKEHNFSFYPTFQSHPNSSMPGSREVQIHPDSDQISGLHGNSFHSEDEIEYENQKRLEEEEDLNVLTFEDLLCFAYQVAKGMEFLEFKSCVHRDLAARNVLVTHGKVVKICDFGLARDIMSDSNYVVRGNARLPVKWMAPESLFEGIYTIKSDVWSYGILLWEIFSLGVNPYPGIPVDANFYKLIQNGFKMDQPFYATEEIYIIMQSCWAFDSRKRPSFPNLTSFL
From the text: Binding Constant (Kd) Measurements for Small-Molecule-Kinase Interactions
The term “ND” represents non-determined values.

Structure (SMILES)	Cell Assay: CS0001:IC50 (MV4,11 cells)	Binding Assay: FLT3(JMminus) (FLT3)	Binding Assay: FLT3(DKIN) (FLT3)	IC50 (MV4,11 cells; Homo sapiens, MV4-11) [µM]
CC(C)(C)c1cc(NC(=O)Nc2ccc(NC(=O)c3sccc3CCc3cccc(C(F)(F)F)c3)cc2)no1 [Compound N183]	+ +	+ + + +	–	–
Cc1ccc(-c2cc(C(=O)Nc3ccc(NC(=O)Nc4cc(C(C)(C)C)on4)cc3)c(C)o2)cc1 [Compound N120]	+ + +	–	+ + + +	–
COc1ccc(NC(=O)Nc2cc(C(C)(C)C)on2)cc1OC [Compound A55]	–	+ +	–	> 10
CC(C)(C)c1cc(NC(=O)Nc2ccc(NC(=O)c3cnc4cc(C(F)(F)F)ccc4c3O)cc2)no1 [Compound N146]	+ + +	–	+ + +	–
CC(C)(C)c1cc(NC(=O)Nc2ccc(NC(=O)c3ccc(Br)cc3)cc2)no1 [Compound N27]	+ +	–	+ +	–
CC(C)(C)c1cc(NC(=O)Nc2ccc(OCc3ccc(C(F)(F)F)cc3)cc2)no1 [Compound G6]	+ + +	–	+ + + +	–
Cc1cc(NC(=O)c2cn3nc(Cl)ccc3n2)ccc1NC(=O)Nc1cc(C(C)(C)C)on1 [Compound N169]	+ + +	+ + +	–	–
CC(C)(C)c1cc(NC(=O)Nc2ccc(NC(=O)c3ccc(OC(F)(F)F)cc3)cc2)no1 [Compound N30]	+ +	–	+ +	–
C=C/C(=C\C=C\Cl)NC(=O)Nc1ccc(C(=O)OCCOC)cc1 [Compound Z54]	+ +	–	+ +	–
CC(C)(C)c1cc(NC(=O)Nc2ccc(OCc3ccccc3C(F)(F)F)cc2)no1 [Compound G4]	+ +	–	+ + +	–
COc1ccc(C(=O)c2c[nH]c(C(=O)Nc3ccc(NC(=O)Nc4cc(C(C)(C)C)on4)cc3)c2)cc1 [Compound N177]	+ +	+ + +	–	–
CC(C)Oc1ccc(NC(=O)Nc2cc(C(C)(C)C)no2)cc1 [Compound G33]	+ + +	–	+ + + +	–
CC(C)(C)c1cc(NC(=O)Nc2ccc(OCCN3CCOCC3)cc2)no1 [Compound G40]	+ +	–	+ + +	–
CC(C)(C)c1cc(NC(=O)Nc2ccc(OCc3ccc4nonc4c3)cc2)no1 [Compound G55]	+ + +	–	+ + + +	–
CC(C)(C)c1cc(NC(=O)Nc2ccc(NC(=O)c3cc4cccnc4nc3C(F)(F)F)cc2)no1 [Compound N61]	+ + +	–	+ + +	–
COc1cc(OC)nc(C2CCCCC2C(=O)Nc2ccc(NC(=O)Nc3cc(C(C)(C)C)on3)cc2)n1 (stereo not drawn) [Compound N129]	+ + +	+ + +	–	–
CC(=O)c1c[nH]c(C(=O)Nc2ccc(NC(=O)Nc3cc(C(C)(C)C)on3)cc2)c1 [Compound N43]	+ + +	–	+ + + +	–
CC(C)(C)c1cc(NC(=O)Nc2ccc(NC(=O)c3ccccc3O)cc2)no1 [Compound N69]	+ + +	+ +	–	–

Structure (SMILES)	Cell Assay: CS0001:IC50 (MV4,11 cells)	Binding Assay: FLT3(JMminus) (FLT3)	Binding Assay: FLT3(DKIN) (FLT3)	IC50 (MV4,11 cells; Homo sapiens, MV4-11) [µM]
CC(C)(C)c1cc(NC(=O)Nc2ccc(NC(=O)c3cc(Cl)nc(Cl)c3)cc2)no1 [Compound N132]	+ + +	–	+ + +	–
CC(=O)c1ccc(NC(=O)Nc2cc(C(C)(C)C)on2)cc1 [Compound A20]	+ + +	–	+ + +	–
COc1ccc(-c2noc(-c3ccc(NC(=O)Nc4cc(C(C)(C)C)on4)cc3)n2)c2ccccc12 [Compound P3]	+ + +	–	+ + +	–
COc1ccc(NC(=O)Nc2cc(C(F)(F)F)cc(Cl)n2)cc1 [Compound Z71]	+ + +	–	+ + + +	–
CC(C)(C)c1cc(NC(=O)Nc2ccc(OCc3ccc(OC(F)(F)F)cc3)cc2)no1 [Compound G5]	+ + +	–	+ + + +	–
CC(C)(C)c1cc(NC(=O)Nc2ccncc2)no1 [Compound A53]	+ +	–	+ +	–
CC(C)(C)c1cc(NC(=O)Nc2ccc(OCCN3CCC(O)CC3)cc2)no1 [Compound G48]	+ +	–	+ + +	–
CC(C)(C)c1cc(NC(=O)Nc2ccc(OCCc3ccc(F)cc3)cc2)no1 [Compound G24]	+ + +	–	+ + + +	–
Cn1cc(C(=O)Nc2ccc(NC(=O)Nc3cc(C(C)(C)C)on3)cc2)c(C(F)(F)F)n1 [Compound N20]	+ + +	–	+ + + +	–
COc1cc(OC)nc(Oc2cccnc2C(=O)Nc2ccc(NC(=O)Nc3cc(C(C)(C)C)on3)cc2)n1 [Compound N56]	+ + +	–	+ + + +	–
CC(C)(C)c1cc(NC(=O)Nc2ccc(NC(=O)C(N)Cc3ccccc3F)cc2)no1 (stereo not drawn) [Compound N42]	+ +	–	+ + +	–
CC(C)(C)c1cc(NC(=O)Nc2ccc(NC(=O)c3ncccc3C(N)=O)cc2)no1 [Compound N6]	+ +	–	+ + +	–
COC(=O)c1ccc(C(=O)Nc2ccc(NC(=O)Nc3cc(C(C)(C)C)on3)cc2)nc1 [Compound N12]	+ + +	–	+ + + +	–
CC(C)(C)c1cc(NC(=O)Nc2ccc(NC(=O)c3cccc(Br)c3)cc2)no1 [Compound N24]	+ +	–	+ + +	–
Cc1nc(C(=O)Nc2ccc(NC(=O)Nc3cc(C(C)(C)C)on3)cc2)nn1-c1cc(Cl)cc(Cl)c1 [Compound N15]	+ +	–	+ + +	–
CC(C)(C)c1cc(NC(=O)Nc2ccc(NC(=O)c3c[nH]c(=O)nc3-c3ccncc3)cc2)no1 [Compound N19]	+ +	–	+ +	–
Cc1nnsc1C(=O)Nc1ccc(NC(=O)Nc2cc(C(C)(C)C)on2)cc1 [Compound N18]	+ +	–	+ + +	–
CC(C)(C)c1cc(NC(=O)Nc2ccc(NC(=O)c3nnsc3Sc3ccc(Cl)cc3)cc2)no1 [Compound N71]	+ +	+ + +	–	–
